From ChEMBL document CHEMBL1131803, “Novel benzopyrano[3,4-c]pyrrole derivatives as potent and selective dopamine D3 receptor antagonist” (Bioorg Med Chem Lett, 1999)

molecular target: D(2) dopamine receptor (Homo sapiens, UniProt P14416); assay: Ability to displace [125I]iodosulpiride from human dopamine D2 (hD2) receptor transfected into CHO cells.; format: cell-based
Sequence (P14416 whole entry): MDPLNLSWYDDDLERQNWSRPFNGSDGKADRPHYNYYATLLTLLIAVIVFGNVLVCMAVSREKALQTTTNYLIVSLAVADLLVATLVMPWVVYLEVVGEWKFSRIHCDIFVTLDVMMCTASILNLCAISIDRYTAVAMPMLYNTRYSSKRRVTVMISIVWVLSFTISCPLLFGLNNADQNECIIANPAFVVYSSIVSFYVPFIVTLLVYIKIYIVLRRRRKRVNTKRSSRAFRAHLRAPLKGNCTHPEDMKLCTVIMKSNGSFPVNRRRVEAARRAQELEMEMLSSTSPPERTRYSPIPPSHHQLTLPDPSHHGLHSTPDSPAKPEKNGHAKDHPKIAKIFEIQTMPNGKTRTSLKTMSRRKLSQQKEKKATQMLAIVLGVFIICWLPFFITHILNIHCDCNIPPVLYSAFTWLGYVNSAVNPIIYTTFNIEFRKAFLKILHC

Point of comparison: N#Cc1ccc2c(c1)[C@H]1CN(Cc3ccccc3)C[C@@H]1CO2, Ki 20 nM. Against it:
- N#Cc1ccc2c(c1)C1CN(CCCCNC(=O)c3ccc(-c4ccccc4)cc3)CC1CO2 (stereo not drawn) — 4-fold higher, 79.4 nM
- COc1ccc2c(c1)C1CN(Cc3ccccc3)CC1CO2 (stereo not drawn) — 10-fold higher, 200 nM
- N#Cc1ccc2c(c1)[C@@H]1CN(Cc3ccccc3)C[C@H]1CO2 — 1.6-fold higher, 31.6 nM
- CC(=O)Nc1ccc(CN2C[C@H]3COc4ccc(C#N)cc4[C@@H]3C2)cc1 — 1.6-fold higher, 31.6 nM
- CC(=O)Nc1ccc(CCN2C[C@@H]3COc4ccc(C#N)cc4[C@H]3C2)cc1 — 1.6-fold higher, 31.6 nM
- CC(=O)c1ccc(C(=O)Nc2ccc(CCN3CC4COc5ccc(C#N)cc5C4C3)cc2)cc1 (stereo not drawn) — the same, 20 nM
- CCCN1CC2COc3ccc(C#N)cc3C2C1 (stereo not drawn) — 6.3-fold higher, 126 nM
- CS(=O)(=O)Nc1ccc(CCN2CC3COc4ccc(C#N)cc4C3C2)cc1 (stereo not drawn) — within 1.5-fold, 25.1 nM
- COc1ccc2c(c1)OCC1CN(Cc3ccccc3)CC21 (stereo not drawn) — 13-fold higher, 251 nM
- CC(=O)Nc1ccc(CCN2CC3COc4ccc(C#N)cc4C3C2)cc1 (stereo not drawn) — 2-fold higher, 39.8 nM
- CC(=O)Nc1ccc(CN2C[C@@H]3COc4ccc(C#N)cc4[C@H]3C2)cc1 — 1.6-fold lower, 12.6 nM
- CC(=O)Nc1ccc(CCN2C[C@H]3COc4ccc(C#N)cc4[C@@H]3C2)cc1 — 2-fold higher, 39.8 nM
- N#Cc1ccc2c(c1)[C@H]1CN(Cc3ccc(F)cc3)C[C@@H]1CO2 — within 1.5-fold, 25.1 nM
- N#Cc1ccc2c(c1)C1CN(Cc3ccc(F)cc3)CC1CO2 (stereo not drawn) — 4-fold higher, 79.4 nM
- CC(=O)Nc1ccc(CN2CC3COc4ccc(C#N)cc4C3C2)cc1 (stereo not drawn) — within 1.5-fold, 25.1 nM
- N#Cc1ccc2c(c1)[C@@H]1CN(Cc3ccc(F)cc3)C[C@H]1CO2 — 2-fold higher, 39.8 nM
- N#Cc1ccc2c(c1)[C@H]1CN(CCCCNC(=O)c3ccc(-c4ccccc4)cc3)C[C@@H]1CO2 — 1.6-fold higher, 31.6 nM
- N#Cc1ccc2c(c1)[C@@H]1CN(CCCCNC(=O)c3ccc(-c4ccccc4)cc3)C[C@H]1CO2 — 2.5-fold higher, 50.1 nM
- N#Cc1ccc2c(c1)C1CN(Cc3ccccc3)CC1CO2 (cis isomer) — 16-fold higher, 316 nM
- N#Cc1ccc2c(c1)[C@H]1CN(CCCCNC(=O)c3ccc(-c4ccc(N)cc4)cc3)C[C@@H]1CO2 (single isomer, unassigned) — the same, 20 nM
- Brc1ccc2c(c1)C1CN(Cc3ccccc3)CC1CO2 (stereo in doubt; cis) — 25-fold higher, 501 nM
- Brc1ccc2c(c1)C1CN(Cc3ccccc3)CC1CO2 (stereo in doubt; trans) — 2.5-fold higher, 50.1 nM
- Clc1ccc2c(c1)C1CN(Cc3ccccc3)CC1CO2 (trans isomer) — 1.6-fold higher, 31.6 nM
- N#Cc1ccc2c(c1)OCC1CN(Cc3ccccc3)CC21 (trans isomer) — 25-fold higher, 501 nM
- N#Cc1ccc2c(c1)C1CN(Cc3ccccc3)CC1CO2 (trans isomer) — within 1.5-fold, 25.1 nM
- Fc1ccc2c(c1)C1CN(Cc3ccccc3)CC1CO2 (trans isomer) — within 1.5-fold, 25.1 nM
- c1ccc(CN2CC3COc4ccccc4C3C2)cc1 (trans isomer) — 16-fold higher, 316 nM
- N#Cc1ccc2c(c1)C1CN(Cc3ccccc3)CC1CC2 (trans isomer) — 2-fold lower, 10 nM

molecular target: D(3) dopamine receptor (Homo sapiens, UniProt P35462); assay: Ability to displace [125I]iodosulpiride from human dopamine D3 (hD3) receptor transfected into CHO cells.; format: cell-based
Sequence (P35462 whole entry): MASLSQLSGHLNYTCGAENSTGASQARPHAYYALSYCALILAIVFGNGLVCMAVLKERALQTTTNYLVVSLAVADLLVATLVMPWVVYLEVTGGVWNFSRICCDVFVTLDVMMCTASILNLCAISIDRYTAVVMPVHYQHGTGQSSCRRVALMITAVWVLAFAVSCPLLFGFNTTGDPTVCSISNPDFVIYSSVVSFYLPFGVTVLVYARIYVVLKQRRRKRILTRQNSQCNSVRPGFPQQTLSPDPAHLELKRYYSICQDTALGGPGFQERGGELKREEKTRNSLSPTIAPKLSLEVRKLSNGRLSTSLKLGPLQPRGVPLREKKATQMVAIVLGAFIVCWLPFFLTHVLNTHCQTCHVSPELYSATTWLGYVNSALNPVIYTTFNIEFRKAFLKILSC

Point of comparison: N#Cc1ccc2c(c1)OCC1CN(Cc3ccccc3)CC21 (trans isomer), Ki 25.1 nM. Against it:
- N#Cc1ccc2c(c1)C1CN(CCCCNC(=O)c3ccc(-c4ccccc4)cc3)CC1CO2 (stereo not drawn) — 32-fold lower, 0.794 nM
- N#Cc1ccc2c(c1)[C@H]1CN(Cc3ccccc3)C[C@@H]1CO2 — 10-fold lower, 2.51 nM
- COc1ccc2c(c1)C1CN(Cc3ccccc3)CC1CO2 (stereo not drawn) — 3.2-fold higher, 79.4 nM
- N#Cc1ccc2c(c1)[C@@H]1CN(Cc3ccccc3)C[C@H]1CO2 — 4-fold lower, 6.31 nM
- CC(=O)Nc1ccc(CN2C[C@H]3COc4ccc(C#N)cc4[C@@H]3C2)cc1 — within 1.5-fold, 20 nM
- CC(=O)Nc1ccc(CCN2C[C@@H]3COc4ccc(C#N)cc4[C@H]3C2)cc1 — 25-fold lower, 1 nM
- CC(=O)c1ccc(C(=O)Nc2ccc(CCN3CC4COc5ccc(C#N)cc5C4C3)cc2)cc1 (stereo not drawn) — 32-fold lower, 0.794 nM
- CCCN1CC2COc3ccc(C#N)cc3C2C1 (stereo not drawn) — 1.6-fold lower, 15.8 nM
- CS(=O)(=O)Nc1ccc(CCN2CC3COc4ccc(C#N)cc4C3C2)cc1 (stereo not drawn) — 16-fold lower, 1.58 nM
- COc1ccc2c(c1)OCC1CN(Cc3ccccc3)CC21 (stereo not drawn) — 3.2-fold higher, 79.4 nM
- CC(=O)Nc1ccc(CCN2CC3COc4ccc(C#N)cc4C3C2)cc1 (stereo not drawn) — 25-fold lower, 1 nM
- CC(=O)Nc1ccc(CN2C[C@@H]3COc4ccc(C#N)cc4[C@H]3C2)cc1 — 2.5-fold lower, 10 nM
- CC(=O)Nc1ccc(CCN2C[C@H]3COc4ccc(C#N)cc4[C@@H]3C2)cc1 — 7.9-fold lower, 3.16 nM
- N#Cc1ccc2c(c1)[C@H]1CN(Cc3ccc(F)cc3)C[C@@H]1CO2 — 4-fold lower, 6.31 nM
- N#Cc1ccc2c(c1)C1CN(Cc3ccc(F)cc3)CC1CO2 (stereo not drawn) — 3.2-fold lower, 7.94 nM
- CC(=O)Nc1ccc(CN2CC3COc4ccc(C#N)cc4C3C2)cc1 (stereo not drawn) — 2-fold lower, 12.6 nM
- N#Cc1ccc2c(c1)[C@@H]1CN(Cc3ccc(F)cc3)C[C@H]1CO2 — 1.6-fold lower, 15.8 nM
- N#Cc1ccc2c(c1)[C@H]1CN(CCCCNC(=O)c3ccc(-c4ccccc4)cc3)C[C@@H]1CO2 — 79-fold lower, 0.316 nM
- N#Cc1ccc2c(c1)[C@@H]1CN(CCCCNC(=O)c3ccc(-c4ccccc4)cc3)C[C@H]1CO2 — 40-fold lower, 0.631 nM
- N#Cc1ccc2c(c1)C1CN(Cc3ccccc3)CC1CO2 (cis isomer) — 4-fold higher, 100 nM
- N#Cc1ccc2c(c1)[C@H]1CN(CCCCNC(=O)c3ccc(-c4ccc(N)cc4)cc3)C[C@@H]1CO2 (single isomer, unassigned) — 130-fold lower, 0.2 nM
- Brc1ccc2c(c1)C1CN(Cc3ccccc3)CC1CO2 (stereo in doubt; cis) — 4-fold higher, 100 nM
- Brc1ccc2c(c1)C1CN(Cc3ccccc3)CC1CO2 (stereo in doubt; trans) — 1.6-fold lower, 15.8 nM
- Clc1ccc2c(c1)C1CN(Cc3ccccc3)CC1CO2 (trans isomer) — 1.6-fold lower, 15.8 nM
- N#Cc1ccc2c(c1)C1CN(Cc3ccccc3)CC1CO2 (trans isomer) — 6.3-fold lower, 3.98 nM
- Fc1ccc2c(c1)C1CN(Cc3ccccc3)CC1CO2 (trans isomer) — 3.2-fold lower, 7.94 nM
- c1ccc(CN2CC3COc4ccccc4C3C2)cc1 (trans isomer) — 5-fold higher, 126 nM
- N#Cc1ccc2c(c1)C1CN(Cc3ccccc3)CC1CC2 (trans isomer) — 4-fold lower, 6.31 nM
